Data reported in patent US4886806A, “Flavone-3-carboxylic acids compounds and pharmaceutical compositions containing them” (Kali-Chemie Pharma GmbH, priority 1987, dated 1989).

Columns and labels:
Type in all cases: cell-based
Lipoxygenase = assay: LTB4 synthesis and inhibition test (lipoxygenase inhibition in vitro) in polymorphonuclear leucocytes; settings: Homo sapiens, PMNL, 10^-4 Mol/l, Ca-ionophore A 23187, arachidonic acid, read-out: Lipoxygenase inhib. in vitro, % inhibition of the LTB4 synthesis at 10^-4 Mol/l
Procedure: 2. In order to investigate the lipoxygenase-inhibiting properties, the inhibiting effect of the substances on the biosynthesis of leucotriene B4 (=LTB4) from arachidonic acid by activated inflamed cells was determined in vitro. Leucotriene B4, a dihydroxy fatty acid which plays an important role not only in the inflammation but also in allergic reactions was oxidatively formed, starting from arachidonic acid, by oxidation through the action of the enzyme lipoxygenase.
LTB4 Synthesis and Inhibition Test.
The combined extracts were evaporated under vacuum to dryness and the residue was taken up in 0.5 ml 30% aqueous methanol and was analyzed with the aid of high pressure liquid chromatography with phase reversal (=reversed phase-HPLC). The stationary phase (=separating medium) consisted of silica gel containing octadecyl groups chemically bound thereto (=RSIL C18 HP; produced by Autech, Darfield, Ill.). The solvent mixture is methanol:water:acetic acid (67:33:0.1; v/v/v), which had been adjusted to a pH value of 6.2 with NH3 /H2 O. The flow velocity was 1 ml/min. […] The LTB4 signals were compared with those of the control (cell incubation with solvent) and reported as percent inhibition of LTB4 synthesis compared with the controls.

[1] = test system: oxygen radical-forming activity of peritoneal exudate cells (PEC) of mice; assay: Spontaneous CL and induced CL chemiluminescence test: inhibition of oxygen radical liberation from peritoneal exudate cells (30 min preincubation); set-up: concentration or dose not given beside the values; settings: for Inhibition in vitro of the oxygen radical liberation, Chemiluminescence Test % inhibition, Ind. CL: induced CL, after ZyC3b activation; for Inhibition in vitro of the oxygen radical liberation, Chemiluminescence Test % inhibition, Spnt. CL: spontaneous CL, before ZyC3b
Procedure: 1. To determine the inhibiting effect on the oxygen radical-forming activity of inflamed cells, the in vitro inhibition of the release of oxygen radicals from activated peritoneal exudate cells (=PEC) of mice was determined in the chemiluminescence (CL) test according to the method of Mueller-Peddinghaus (Int. J. Immunopharmac. 6, 455-466 (1984)). […] The intensity of the chemiluminescence is a measurement of the oxygen radical content in the suspension and thus the degree of activity of the inflamed cells. In this, three functionally different parameters are detected, the spontaneous CL, the induced CL and the peak CL. The spontaneous CL and the induced CL on the one hand and the peak CL on the other hand differ from each other because in the first two parameters the test substances are in contact with the cells for a 30 minute preincubation period before the inflammation irritant is added, whereas with the peak CL the cells are first stimulated, and the test substance is added at the peak of their activity. The measurement of the spontaneous CL thus detects the influence of the test substance on the relative rest activity of inflamed cells, the induced CL represents the effect of the test substances on the activatability of the cells and the inhibition of the peak CL indicates the effect of the test substances on the maximum activity of the inflamed cells. 1.1 Production of PEC suspension used in the test. In order to induce the PEC formation, female mice of 20-25 g body weight were each injected i.p. with 2 ml of a 3% solution of thioglycollate in sterile isotonic sodium chloride solution. Twenty four hours after the thioglycollate injection the cells, which predominantly consisted of polymorphonuclear leucocytes, were recovered by washing out of the abdominal cavity and washed twice. As cell culture medium there was added a commercially available solution under the designation RPMI 1640 (pH 7.2) (produced by Flow Laboratories, […], Germany), which contains 10% fetal calf serum (FCS, produced by Seromed GmbH, Munich, Germany) 18 μmol/l sodium bicarbonate and 2 μmol/l L-glutamine. The cell pellets of four animals each time were resuspended in cell culture medium, collected together and the suspension was made up to 2×10^6 cells per ml with cell culture medium. The cell suspensions were kept under ice cooling until their use the same day. 1.2 Production of the complement opsonized zymosan (=ZyC3 b) suspension used for activation. 200 mg zymosan (glycoprotein mixture isolated from the cell walls of brewer's yeast, Sacchomyces […], produced by Sigma Chemical Co., Munich, Germany) were suspended in 10 ml phosphate buffer solution according to Dulbecco (produced by Flow Laboratories, […], Germany), well stirred and heated for thirty minutes in a water bath to 100° C. After cooling, it was centrifuged for five minutes at 4° C. and at 600 ×g and the supernatant was discarded. The sediment was resuspended in 50 ml human serum and incubated for thirty minutes at 37° C. in a shaking water bath. Then it was centrifuged for five minutes at 600 ×g and 420 C., the supernatant decanted and the sediment washed with phosphate buffer solution. The working suspension of 8×10^-3 g ZyC3 b/ml was produced from the sediment by dilution with phosphate buffer solution (Mueller-Peddinghaus et al., Zbl. Vet. Med. B. 30, 559-575). 1.3 Chemiluminescence (CL) measurement (Peak-CL). […] At the end of this preincubation phase, 100 μl lucigenin were added, and in the course of the subsequent sixteen minute incubation phase the spontaneous CL parameter was determined with two measuring points. Then 100 μl ZyC3 b+100 μl phosphate buffer were added, and during the course of the subsequent twenty-four minute cell activation the induced CL parameter was measured with three measuring points. All measurements were determined twice. The parameters spontaneous CL and induced CL were determined on the same day with two separate cell pools.

[2] = test system: oxygen radical-forming activity of activated peritoneal exudate cells (PEC) of mice; assay: Peak chemiluminescence (CL) test: inhibition of oxygen radical liberation from activated peritoneal exudate cells; settings: Mus musculus, 10^-4 Mol substance/l, added at peak of cell activity, read-out: Inhibition in vitro of the oxygen radical liberation, Chemiluminescence Test % inhibition, Pk. CL
Procedure: 1. To determine the inhibiting effect on the oxygen radical-forming activity of inflamed cells, the in vitro inhibition of the release of oxygen radicals from activated peritoneal exudate cells (=PEC) of mice was determined in the chemiluminescence (CL) test according to the method of Mueller-Peddinghaus (Int. J. Immunopharmac. 6, 455-466 (1984)). […] The intensity of the chemiluminescence is a measurement of the oxygen radical content in the suspension and thus the degree of activity of the inflamed cells. In this, three functionally different parameters are detected, the spontaneous CL, the induced CL and the peak CL. The spontaneous CL and the induced CL on the one hand and the peak CL on the other hand differ from each other because in the first two parameters the test substances are in contact with the cells for a 30 minute preincubation period before the inflammation irritant is added, whereas with the peak CL the cells are first stimulated, and the test substance is added at the peak of their activity. The measurement of the spontaneous CL thus detects the influence of the test substance on the relative rest activity of inflamed cells, the induced CL represents the effect of the test substances on the activatability of the cells and the inhibition of the peak CL indicates the effect of the test substances on the maximum activity of the inflamed cells. 1.1 Production of PEC suspension used in the test. In order to induce the PEC formation, female mice of 20-25 g body weight were each injected i.p. with 2 ml of a 3% solution of thioglycollate in sterile isotonic sodium chloride solution. Twenty four hours after the thioglycollate injection the cells, which predominantly consisted of polymorphonuclear leucocytes, were recovered by washing out of the abdominal cavity and washed twice. As cell culture medium there was added a commercially available solution under the designation RPMI 1640 (pH 7.2) (produced by Flow Laboratories, […], Germany), which contains 10% fetal calf serum (FCS, produced by Seromed GmbH, Munich, Germany) 18 μmol/l sodium bicarbonate and 2 μmol/l L-glutamine. The cell pellets of four animals each time were resuspended in cell culture medium, collected together and the suspension was made up to 2×10^6 cells per ml with cell culture medium. The cell suspensions were kept under ice cooling until their use the same day. 1.2 Production of the complement opsonized zymosan (=ZyC3 b) suspension used for activation. 200 mg zymosan (glycoprotein mixture isolated from the cell walls of brewer's yeast, Sacchomyces […], produced by Sigma Chemical Co., Munich, Germany) were suspended in 10 ml phosphate buffer solution according to Dulbecco (produced by Flow Laboratories, […], Germany), well stirred and heated for thirty minutes in a water bath to 100° C. After cooling, it was centrifuged for five minutes at 4° C. and at 600 ×g and the supernatant was discarded. The sediment was resuspended in 50 ml human serum and incubated for thirty minutes at 37° C. in a shaking water bath. Then it was centrifuged for five minutes at 600 ×g and 420 C., the supernatant decanted and the sediment washed with phosphate buffer solution. The working suspension of 8×10^-3 g ZyC3 b/ml was produced from the sediment by dilution with phosphate buffer solution (Mueller-Peddinghaus et al., Zbl. Vet. Med. B. 30, 559-575). 1.3 Chemiluminescence (CL) measurement (Peak-CL). The PEC suspension was divided into samples of 100 μl each, placed in test tubes, and these were incubated for ten minutes at a temperature of 3720 C. in a measurement device (Chemiluminescence analyzer, Laboratorium Prof. Berthold, Wildbad, Germany). Then in order to amplify the chemiluminescence, 100 μl lucigenin solution was added (final concentration 1.54×10^-4 mol/l) and incubated for 16 more minutes. The cells were then activated by the addition of 100 μl of the ZyC3 b suspension produced as described in section 1.2 plus 100 μl phosphate buffer solution. […]

| Compound | inhibition at 100 µM (Lipoxygenase) | Inhibition in vitro of the oxygen radical liberation, Chemiluminescence Test % inhibition, Ind. CL [1] | Inhibition in vitro of the oxygen radical liberation, Chemiluminescence Test % inhibition, Spnt. CL [1] | inhibition at 100 µM (stock) [2] |
| --- | --- | --- | --- | --- |
| O=C(NCCCC[N+]1([O-])CC[N+]([O-])(c2cccc[n+]2[O-])CC1)c1c(-c2ccccc2)oc2ccccc2c1=O (stereo not shown) [Example 26] | 43% | 3% | 13% | 10% |
| O=C(c1c(-c2ccc(O)c(O)c2)oc2ccccc2c1=O)N1CCN(c2ccccn2)CC1 [Example 29] | 97% | 74% | 65% | 75% |
| O=C(c1c(-c2ccccc2Cl)oc2ccccc2c1=O)N1CCN(c2ccccn2)CC1 [Example 35] | 100% | – | – | – |
| CC(=O)Oc1cc(-c2oc3ccccc3c(=O)c2C(=O)N2CCN(Cc3ccccc3)CC2)cc(OC(C)=O)c1OC(C)=O [Example 42b] | 100% | 100% | 99% | 99% |
